± gives the standard deviation of the averaged measurements.
What was measured:
Assay in all cases: level (log10 ratio to DMSO vehicle control); higher = higher biomarker level / cell amount than vehicle control
Conditions in all cases: in DMSO
[1] = compound: COC(=O)CCC(F)(F)C(F)(F)C(F)(F)C(F)(F)F [Methyl 2H,2H,3H,3H-perfluoroheptanoate]
Experimental: (§1)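 BioMAP Diversity Plus panel of 12 human primary cell co-culture systems (3C, 4H, LPS, SAg, BT, BF4T, BE3C, CASM3C, HDF3CGF, KF3CT, MyoF, Mphg). Compounds were added 1 h before stimulation and left for 24 h (MyoF 48 h; BT 72 h for soluble read-outs or 6 d for IgG). Biomarkers were read by ELISA, cytotoxicity by SRB, PBMC viability and proliferation by Alamar Blue. Each well value was divided by the mean of 8 DMSO control wells on the same plate and log10 transformed; duplicate blinded samples were tested at 4 concentrations.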

[2] = compound: O=C(O)C(F)(F)C(F)(F)C(F)(F)OC(F)(C(F)(F)F)C(F)(F)F [Perfluoro-4-isopropoxybutanoic acid]
Experimental: as §1

Perfluorodecanoic acid = compound: O=C(O)C(F)(F)C(F)(F)C(F)(F)C(F)(F)C(F)(F)C(F)(F)C(F)(F)C(F)(F)C(F)(F)F [Perfluorodecanoic acid]
Experimental: as §1

[3] = compound: NCC(F)(F)C(F)(F)C(F)(F)C(F)(F)C(F)(F)C(F)(F)C(F)(F)F [1H,1H-Perfluorooctylamine]
Experimental: as §1

Perfluoropropanoic acid = compound: O=C(O)C(F)(F)C(F)(F)F [Perfluoropropanoic acid]
Experimental: as §1

[4] = compound: FC(F)(F)C(F)(C(F)(F)F)C(F)(F)C(F)(F)CC1CO1 [3-(Perfluoro-3-methylbutyl)-1,2-propenoxide]
Experimental: as §1

Perfluoro-1-iodohexane = compound: FC(F)(F)C(F)(F)C(F)(F)C(F)(F)C(F)(F)C(F)(F)I [Perfluoro-1-iodohexane]
Experimental: as §1

Test System	level (log10) ([1]; 6700 nM)	level (log10) ([1]; 20000 nM)	level (log10) ([1]; 60000 nM)	level (log10) ([2]; 6700 nM)	level (log10) ([2]; 20000 nM)	level (log10) ([2]; 60000 nM)	level (log10) (Perfluorodecanoic acid; 6700 nM)	level (log10) (Perfluorodecanoic acid; 20000 nM)	level (log10) ([3]; 6700 nM)	level (log10) ([3]; 20000 nM)	level (log10) ([3]; 60000 nM)	level (log10) (Perfluoropropanoic acid; 6700 nM)	level (log10) (Perfluoropropanoic acid; 20000 nM)	level (log10) (Perfluoropropanoic acid; 60000 nM)	level (log10) ([4]; 6700 nM)	level (log10) ([4]; 20000 nM)	level (log10) (Perfluoro-1-iodohexane; 6700 nM)	level (log10) (Perfluoro-1-iodohexane; 20000 nM)	level (log10) (Perfluoro-1-iodohexane; 60000 nM)
LPS:sTNF-alpha	0.0245 ± 0.005	-0.007 ± 0.011	-0.025 ± 0.033	-0.0215 ± 0.15	-0.012 ± 0.13	-0.031 ± 0.1	-0.0245 ± 0.011	-0.02 ± 0.017	0.018 ± 0.011	0.0125 ± 0.029	-0.0015 ± 0.028	-0.006 ± 0.013	0.0065 ± 0.00071	0.0175 ± 0.0021	0.0005 ± 0.0078	-0.0025 ± 0.005	0.0005 ± 0.022	-0.008 ± 0.016	0.0075 ± 0.029
SAg:CCL2/MCP-1	0 ± 0.014	-0.027 ± 0.0014	-0.0015 ± 0.0035	-0.007 ± 0.021	0.006 ± 0.016	0.039 ± 0.02	0.0065 ± 0.0064	-0.017 ± 0.0014	-0.0255 ± 0.012	-0.0145 ± 0.0064	-0.0035 ± 0.025	-0.0055 ± 0.036	0.012 ± 0.016	0.0145 ± 0.042	-0.0225 ± 0.039	0.004 ± 0.0085	0.006 ± 0.018	-0.0045 ± 0.021	0.005 ± 0.05
SAg:CD38	-0.018 ± 0.017	-0.0015 ± 0.018	-0.009 ± 0.0028	-0.003 ± 0.014	-0.0015 ± 0.0035	-0.017 ± 0.014	-0.009 ± 0.0014	-0.017 ± 0.0057	0.0005 ± 0.012	-0.0155 ± 0.00071	0.0065 ± 0.005	0.0015 ± 0.043	0.023 ± 0.0085	0.029 ± 0.055	-0.0005 ± 0.0021	0.015 ± 0.018	-0.059 ± 0.15	-0.01 ± 0.02	0.0005 ± 0.076
SAg:CD40	-0.042 ± 0.04	-0.0415 ± 0.04	-0.053 ± 0.065	0.0105 ± 0.023	0.0165 ± 0.005	-0.008 ± 0.018	-0.0095 ± 0.021	-0.0305 ± 0.012	0.001 ± 0.02	-0.0115 ± 0.011	-0.002 ± 0.011	-0.045 ± 0.016	-0.0335 ± 0.044	-0.009 ± 0.031	-0.018 ± 0.025	-0.0205 ± 0.039	-0.019 ± 0.013	-0.0195 ± 0.018	0.012 ± 0.061
SAg:CD62E/E-Selectin	-0.014 ± 0.014	-0.03 ± 0.0071	0.007 ± 0.0057	-0.0025 ± 0.0021	0.0125 ± 0.015	-0.01 ± 0.023	0.0005 ± 0.015	0.0165 ± 0.023	-0.0135 ± 0.028	-0.0055 ± 0.039	0 ± 0.011	0.004 ± 0.013	-0.0205 ± 0.016	0.0425 ± 0.023	-0.0195 ± 0.019	-0.012	-0.009 ± 0.0014	0.0055 ± 0.019	0.0095 ± 0.044
SAg:CD69	-0.0375 ± 0.035	-0.0225 ± 0.019	-0.0085 ± 0.05	-0.0085 ± 0.00071	-0.0055 ± 0.005	-0.016 ± 0.0042	-0.0335 ± 0.015	-0.062 ± 0.0057	-0.0095 ± 0.0092	0.0005 ± 0.0035	0.006 ± 0.016	-0.0175 ± 0.005	-0.019 ± 0.0042	-0.008 ± 0.023	-0.0125 ± 0.015	-0.006 ± 0.059	-0.0155 ± 0.033	-0.017 ± 0.024	0.006 ± 0.0014
SAg:CXCL8/IL-8	-0.007 ± 0.05	-0.0085 ± 0.026	0.0165 ± 0.033	0.009 ± 0.037	0.02 ± 0.02	0.071 ± 0.023	-0.0325 ± 0.03	-0.064 ± 0.038	0.058 ± 0.076	-0.0255 ± 0.011	0.0065 ± 0.061	-0.022 ± 0.0057	0.0065 ± 0.019	0.0415 ± 0.0078	0.0035 ± 0.0021	0.013 ± 0.041	0.0365 ± 0.016	-0.004 ± 0.0071	0.002 ± 0.059
SAg:CXCL9/MIG	-0.0195 ± 0.012	-0.0095 ± 0.0021	-0.0065 ± 0.018	-0.007 ± 0.0099	0.002 ± 0.0042	0.002 ± 0.0071	-0.006 ± 0.011	-0.0025 ± 0.015	-0.0035 ± 0.005	-0.019 ± 0.0057	-0.01 ± 0.0014	-0.0015 ± 0.0078	0.012 ± 0.0057	0.0025 ± 0.022	-0.0255 ± 0.005	-0.002 ± 0.018	-0.0205 ± 0.028	-0.005 ± 0.014	0.0045 ± 0.032
SAg:PBMC Cytotoxicity	0.033 ± 0.021	0.029 ± 0.058	0.029 ± 0.057	0.0225 ± 0.026	0.0245 ± 0.028	0.0425 ± 0.022	0.032 ± 0.0028	0.0625 ± 0.061	0.032 ± 0.025	0.018 ± 0.013	-0.129 ± 0.27	-0.001 ± 0.013	-0.0055 ± 0.0092	0.009 ± 0.044	0.008 ± 0.0071	0.016 ± 0.023	-0.025 ± 0.023	-0.014 ± 0.0014	-0.024 ± 0.028
SAg:Proliferation	0.0115 ± 0.029	0.001 ± 0.0014	0.0075 ± 0.0078	-0.018 ± 0.0042	-0.007 ± 0.0028	0.0175 ± 0.04	0.0435 ± 0.019	0.0255 ± 0.032	-0.004 ± 0.024	-0.0195 ± 0.019	-0.174 ± 0.24	-0.0205 ± 0.043	-0.0085 ± 0.019	-0.0025 ± 0.07	0.028 ± 0.017	0.007 ± 0.12	-0.031 ± 0.044	-0.055 ± 0.02	-0.0395 ± 0.04
SAg:SRB	0.008 ± 0.027	0.0005 ± 0.0064	-0.0085 ± 0.0092	-0.001 ± 0.018	-0.0085 ± 0.016	-0.018 ± 0.0085	-0.0035 ± 0.012	-0.008 ± 0.013	0.0005 ± 0.0035	-0.002 ± 0.014	-0.001 ± 0.027	-0.01 ± 0.0028	-0.014 ± 0.0042	-0.0035 ± 0.00071	-0.006 ± 0.023	-0.0025 ± 0.0021	-0.0075 ± 0.011	-0.002 ± 0.0014	-0.0045 ± 0.011

Reference: the supplement of paper PMC10331698
